# Results published in ChEMBL document CHEMBL4613261, “Metabolic and Pharmaceutical Aspects of Fluorinated Compounds” (J Med Chem, 2020).
# Where “and” joins values, the source holds several entries; their conditions need not be identical. Equal entries are not always repeated.
# Experiments:
# [1] = Acute toxicity in rat measured after 4 hrs; conditions: in vivo
# [2] = target: T1, MGST1 (microsomal glutathione S-transferase 1) (Rattus norvegicus, UniProt P08011); assay: Substrate activity at MGST1 in rat liver microsomes assessed as substrate depletion at 50 uM incubated for 30 mins in presence of GSH by liquid chromatography/mass spectrometry; format: ADME; conditions: read-out: Activity
# T1 sequence (P08011 whole entry): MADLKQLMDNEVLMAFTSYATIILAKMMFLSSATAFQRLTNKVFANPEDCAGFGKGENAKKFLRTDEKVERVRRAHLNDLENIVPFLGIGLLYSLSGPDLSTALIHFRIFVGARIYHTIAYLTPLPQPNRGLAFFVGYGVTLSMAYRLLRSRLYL
# [3] = target: Alanine racemase, biosynthetic (Escherichia coli K-12, UniProt P0A6B4); assay: Substrate activity at Escherichia coli B alanine racemase assessed as partition ratio by measuring ratio of turnover rate to inactivation rate
# Alanine racemase, biosynthetic, sequence (P0A6B4 whole entry): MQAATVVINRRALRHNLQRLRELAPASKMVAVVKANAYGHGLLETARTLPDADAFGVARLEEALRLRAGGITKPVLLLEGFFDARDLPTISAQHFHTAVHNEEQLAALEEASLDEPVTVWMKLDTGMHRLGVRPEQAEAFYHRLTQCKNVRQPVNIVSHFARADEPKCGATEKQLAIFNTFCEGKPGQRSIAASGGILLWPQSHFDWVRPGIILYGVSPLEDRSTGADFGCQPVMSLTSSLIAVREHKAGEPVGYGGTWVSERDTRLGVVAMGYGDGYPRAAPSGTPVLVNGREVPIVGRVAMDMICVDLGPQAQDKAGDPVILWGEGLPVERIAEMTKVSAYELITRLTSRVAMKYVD
# [4] = Lipophilicity, log P of the compound; conditions: octanol/water
# [5] = Aqueous solubility of the compound in pH 6.8 buffer
# [6] = Intrinsic clearance in human liver microsome; format: ADME; conditions: liver microsomes, read-out: CLH
# [7] = Protein binding in human plasma
# [8] = Solubility of the compound in aqueous buffer at pH 6.5; format: physicochemical
# [9] = Clearance in human liver microsomes assessed per mg protein; format: ADME, Microsome
# [10] = Drug metabolism in Sprague-Dawley rat heart assessed as fluoro-acetic acid metabolite level at 100 mg/kg, po measured after 2 to 8 hrs; format: ADME, organism-based; conditions: in vivo
# [11] = Drug metabolism in Sprague-Dawley rat liver assessed as fluoro-acetic acid metabolite level at 100 mg/kg, po measured after 2 to 8 hrs; format: ADME, organism-based; conditions: in vivo
# [12] = Drug metabolism in Sprague-Dawley rat kidney assessed as fluoro-acetic acid metabolite level at 100 mg/kg, po measured after 2 to 8 hrs; format: ADME, organism-based; conditions: in vivo
# [13] = Lipophilicity, log P of the compound by C18 reverse phase HPLC; format: physicochemical
# [14] = Apparent half life in rat blood; format: ADME, tissue-based
# [15] = Apparent half life in rat brain; format: ADME, tissue-based
# Adenosylhomocysteinase = target: T2, Adenosylhomocysteinase (Rattus norvegicus, UniProt P10760); assay: Reversible inhibition of rat liver S- adenosyl-L-homocysteine hydrolase using SAH as substrate by spectrophotometric method
# T2 sequence (P10760 whole entry): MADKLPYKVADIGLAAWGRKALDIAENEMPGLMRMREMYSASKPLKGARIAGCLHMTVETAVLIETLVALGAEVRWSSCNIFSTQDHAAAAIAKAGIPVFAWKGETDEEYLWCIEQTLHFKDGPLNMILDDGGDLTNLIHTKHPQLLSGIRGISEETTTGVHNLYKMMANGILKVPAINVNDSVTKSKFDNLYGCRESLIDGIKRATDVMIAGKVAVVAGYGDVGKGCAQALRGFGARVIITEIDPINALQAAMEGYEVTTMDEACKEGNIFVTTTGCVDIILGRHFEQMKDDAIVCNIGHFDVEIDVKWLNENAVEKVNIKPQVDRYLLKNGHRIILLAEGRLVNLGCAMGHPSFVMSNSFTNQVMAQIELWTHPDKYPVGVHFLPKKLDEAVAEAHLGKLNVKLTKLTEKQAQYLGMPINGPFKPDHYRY
# [16] = target: T3, Microsomal glutathione S-transferase 1 (Rattus norvegicus, UniProt P08011); assay: Substrate activity at MGST1 in rat liver microsomes assessed as reactivity rate at 50 uM incubated for 1 to 40 mins in presence of GSH by liquid chromatography/mass spectrometry
# T3 sequence (P08011 whole entry): T1 sequence (P08011 whole entry)
# [17] = Toxicity in dog; parameters: species or system Canis lupus familiaris; conditions: in vivo
# [18] = Substrate activity at GSTZ (unknown origin) assessed as rate of drug conversion to S-(carboxymethyl)-glutathione per mg of protein; format: ADME; conditions: human
# [19] = Substrate activity at recombinant human GSTZ1C expressed in Escherichia coli M15 assessed as rate of catalysis per mg of protein; format: ADME
# [20] = target: T4, Maleylacetoacetate isomerase (Rattus norvegicus, UniProt P57113); assay: Substrate activity at GSTZ1 in rat liver cytosol assessed as defluorination activity; format: ADME, subcellular
# T4 sequence (P57113 whole entry): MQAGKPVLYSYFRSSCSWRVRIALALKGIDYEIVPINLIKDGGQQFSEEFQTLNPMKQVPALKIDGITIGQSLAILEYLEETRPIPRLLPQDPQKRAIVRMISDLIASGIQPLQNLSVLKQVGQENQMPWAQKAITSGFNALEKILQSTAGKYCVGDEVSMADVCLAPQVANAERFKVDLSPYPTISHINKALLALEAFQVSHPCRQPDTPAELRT
# [21] = Half life in human hepatocytes; format: ADME, cell-based, Hepatocyte
# [22] = Half life in rat; format: ADME; conditions: in vivo
# [23] = Half life in dog; format: ADME, Canis lupus familiaris; conditions: in vivo
# Lysine decarboxylase = target: T5, Lysine decarboxylase (Hafnia alvei, UniProt P05033); assay: Time dependent inhibition of Hafnia alvei lysine decarboxylase using L-lysine by Kitz-Wilson analysis
# T5 sequence (P05033 whole entry): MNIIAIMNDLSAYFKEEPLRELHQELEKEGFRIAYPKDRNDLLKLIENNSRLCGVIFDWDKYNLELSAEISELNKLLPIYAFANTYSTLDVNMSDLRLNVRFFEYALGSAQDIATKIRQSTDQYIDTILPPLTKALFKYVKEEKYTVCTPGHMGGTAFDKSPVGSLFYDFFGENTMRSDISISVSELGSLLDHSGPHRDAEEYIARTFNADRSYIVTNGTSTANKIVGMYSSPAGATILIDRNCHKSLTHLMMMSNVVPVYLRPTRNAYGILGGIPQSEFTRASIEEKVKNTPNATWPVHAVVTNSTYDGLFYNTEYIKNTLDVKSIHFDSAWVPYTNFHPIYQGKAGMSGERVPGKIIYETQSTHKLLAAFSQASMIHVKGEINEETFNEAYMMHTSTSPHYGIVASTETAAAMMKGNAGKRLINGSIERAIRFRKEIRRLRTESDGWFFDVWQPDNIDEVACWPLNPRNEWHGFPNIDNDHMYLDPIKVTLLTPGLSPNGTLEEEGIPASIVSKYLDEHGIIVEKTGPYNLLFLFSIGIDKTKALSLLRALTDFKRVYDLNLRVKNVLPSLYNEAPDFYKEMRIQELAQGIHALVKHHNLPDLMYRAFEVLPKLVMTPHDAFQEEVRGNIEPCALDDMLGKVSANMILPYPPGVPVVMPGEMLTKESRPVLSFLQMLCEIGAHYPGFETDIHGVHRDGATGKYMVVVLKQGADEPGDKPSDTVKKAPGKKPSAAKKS
# Adenosine deaminase [24] = target: T6, Adenosine deaminase (Rattus norvegicus, UniProt Q920P6); assay: Prodrug conversion in rat blood assessed as rate of adenosine deaminase-mediated didanosine formation by HPLC analysis; format: ADME, tissue-based
# T6 sequence (Q920P6 whole entry): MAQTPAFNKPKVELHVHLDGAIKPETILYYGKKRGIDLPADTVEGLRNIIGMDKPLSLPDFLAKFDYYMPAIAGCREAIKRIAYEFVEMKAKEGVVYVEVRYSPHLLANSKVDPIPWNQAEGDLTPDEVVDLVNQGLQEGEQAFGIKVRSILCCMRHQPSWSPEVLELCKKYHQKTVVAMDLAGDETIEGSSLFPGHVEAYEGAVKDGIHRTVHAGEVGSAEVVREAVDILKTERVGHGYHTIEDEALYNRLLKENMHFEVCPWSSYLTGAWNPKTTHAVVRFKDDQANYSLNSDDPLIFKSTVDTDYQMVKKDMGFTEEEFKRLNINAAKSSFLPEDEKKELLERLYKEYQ
# [25] = Prodrug conversion in rat blood assessed as rate of didanosine formation by HPLC analysis; format: ADME, tissue-based
# [26] = Prodrug conversion in rat blood assessed as total fraction of didanosine formation by HPLC analysis; format: ADME, tissue-based
# Adenosine deaminase [27] = target: T6, Adenosine deaminase; assay: Prodrug conversion in rat brain assessed as rate of adenosine deaminase-mediated didanosine formation by HPLC analysis; format: ADME, tissue-based; conditions: in vivo
# [28] = Prodrug conversion in rat brain assessed as rate of didanosine formation by HPLC analysis; format: ADME, tissue-based; conditions: in vivo
# [29] = Prodrug conversion in rat brain assessed as total fraction of didanosine formation by HPLC analysis; format: ADME, tissue-based; conditions: in vivo
# [30] = Toxicity in Wistar rat measured for 6 days; conditions: in vivo, 144 h
# [31] = Drug elimination in human; format: ADME; conditions: read-out: Drug excretion
# [32] = Substrate activity at cytochrome p450 in phenobarbital-induced rat liver microsomes assessed as cytochrome p450-mediated-deethoxylation per mg of protein; format: ADME
# [33] = Drug recovery in rat excreta assessed as metabolically unchanged parent compound at 100 mg/kg, po; format: ADME, organism-based; conditions: read-out: Drug recovery
compound,measurement,setting,value
FC(F)=C(F)F [TETRAFLUOROETHYLENE],Activity,[1],40000 ppm
COc1cccnc1Cl,"metabolised at 0.5 h, 50 µM",[2],17%
N[C@@H](CF)C(=O)O,Ratio,[3],790
O=[N+]([O-])c1cn2c(n1)OC[C@@H](OCc1ccc(OC(F)(F)F)cc1)C2 [PRETOMANID],logP,[4],2.2
same,solubility,[5]; buffer,8 µM
same,microsomal CLint,[6],< 25 µL/min/mg
same,PPB,[7],38%
Nc1cccnc1Cl,"metabolised at 0.5 h, 50 µM",[2],< 5%
FCC(F)Cc1c[nH]c2ccccc12 (stereo unspecified),solubility,[8],> 1720 µM
same,CLH,[9],212 min⁻¹ µL⁻¹
C[C@H](NC(=O)[C@H](Cc1ccccc1)NC(=O)OCc1ccccc1)C(=O)CF,Drug metabolism,[10],0.2 to 0.9 µg/g
same,Drug metabolism,[11],0.2 to 0.9 µg/g
same,Drug metabolism,[12],0.2 to 0.9 µg/g
FC(F)(F)Oc1ccccc1,logP,[13],3.35
OC[C@@H]1CC[C@H](n2cnc3c(I)ncnc32)O1,half-life,[14],28.2 h
same,half-life,[15],2.97 h
CC(F)(F)Oc1ccccc1,logP,[13],2.87
Nc1ncnc2c1ncn2[C@@H]1C=C(CO)[C@@H](O)[C@H]1O [NEOPLANOCIN A],Ki,Adenosylhomocysteinase,0.00839 µM
O=[N+]([O-])c1cccnc1Cl,Activity,[16],236 nmol/min/mg
same,"metabolised at 0.5 h, 50 µM",[2],100%
O=C(O)CF [FLUOROACETATE],LD,[17],0.05 mg/kg
same,K,[18],172 nmol/min
same,K,[19],210 nmol/min
same,Activity,[20],3%
Nc1nc2ccc(SC(F)(F)F)cc2s1,logP,[4],3.6
same,solubility,[5]; pH 6.8 buffer,124 µM
same,microsomal CLint,[6],40.9 µL/min/mg
same,fraction unbound,[7],0.24
OC[C@@H]1CC[C@H](n2cnc3c(Br)ncnc32)O1,half-life,[14],4.67 h
same,half-life,[15],0.333 h
FC(F)(F)c1cccnc1Cl,"metabolised at 0.5 h, 50 µM",[2],31%
N[C@H]1C[C@@H](C(=O)O)CC1=C(F)F [CPP-115 FREE BASE],half-life,[21],20 h
same,half-life,[22],1 to 2.3 h
same,half-life,[23],1 to 2.3 h
CC(Cl)C(=O)O (racemic),K,[18],1655 nmol/min
N[C@H](C(=O)O)C(F)F,Ratio,[3],5000
C=C(F)[C@](N)(CCCCN)C(=O)O,Ki,Lysine decarboxylase,630 µM
N[C@H](CF)C(=O)O [FLUDALANINE],Ratio,[3],810
NC(C(=O)O)C(F)(F)F (racemic),Ratio,[3],10
Oc1cccnc1Cl,"metabolised at 0.5 h, 50 µM",[2],< 5%
OC[C@@H]1CC[C@H](n2cnc3c(Cl)ncnc32)O1,half-life,[14],4.5 h
same,half-life,[15],0.317 h
same,K,Adenosine deaminase [24],3 ×10⁻³ /min
same,K,[25],7.4 ×10⁻³ /min
same,Fm,[26],0.28
same,K,Adenosine deaminase [27],0.032 min⁻¹
same,K,[28],0 min⁻¹
same,Fm,[29],1
FC(F)=C(F)C(F)(F)F,Activity,[1],3000 ppm
C=C(F)[C@@](N)(CCCCN)C(=O)O,Ki,Lysine decarboxylase,470 µM
Clc1cccnc1Cl,"metabolised at 0.5 h, 50 µM",[2],26%
Clc1ccccn1 [2-CHLOROPYRIDINE],Activity,[16],< 2 nmol/min/mg
OCC(F)(F)F [TRIFLUOROETHANOL],LD50,[30],440 mg/kg and 210 mg/kg
FC(F)(F)C(Cl)Br (stereo unspecified) [HALOTHANE],dose excreted,[31],80%
CCOc1ccccc1 [PHENETOLE],logP,[13],2.96
CCOc1ccc(NC(C)=O)cc1 [PHENACETIN],Activity,[32],3.48 nmol/min
O=[N+]([O-])c1cn2c(n1)OC[C@@H](OCc1ccc(SC(F)(F)F)cc1)C2,logP,[4],2.7
same,solubility,[5]; pH 6.8 buffer,5 µM
same,microsomal CLint,[6],< 25 µL/min/mg
same,fraction unbound,[7],0.4
CC(Br)C(=O)O (racemic),K,[18],2142 nmol/min
Nc1nc2ccc(OC(F)(F)F)cc2s1 [RILUZOLE],microsomal CLint,[6],38.9 µL/min/mg
same,PPB,[7],85%
N#Cc1c[nH]cc1-c1cccc2c1OC(F)(F)O2 [FLUDIOXONIL],dose excreted,[33],12%
Cc1cccnc1Cl,"metabolised at 0.5 h, 50 µM",[2],14%
CCOc1ccc2ccc(=O)oc2c1 [ETHOXYCOUMARIN],Activity,[32],1.93 nmol/min
OC[C@@H]1CC[C@H](n2cnc3c(F)ncnc32)O1,half-life,[14],0.0583 h
same,half-life,[15],0.00767 h
same,K,Adenosine deaminase [24],0.15 min⁻¹
same,K,[25],0.13 min⁻¹
same,Fm,[26],0.54
same,K,Adenosine deaminase [27],1.51 min⁻¹
same,K,[28],0 min⁻¹
same,Fm,[29],1
N[C@@H](C(=O)O)C(F)F,Ratio,[3],2600
CC(I)C(=O)O (racemic),K,[18],2532 nmol/min
